Legend:
[1] = system: human hepatocytes; test: Determination of t1/2 (metabolic stability) after incubation with human hepatocytes; format: in vitro ADME; details: 100 nM compound, 0.5, 1 and 2 h, class relative to 17α-methyltestosterone and testosterone; for t1/2 Bioassay: supernatant analysed by androgenic activity bioassay (example 6)
Description: The half-life of a compound as a result of contact with human hepatocytes holds as a reliable indication of metabolic stability. As it is well known that the absorption of this class of steroids is high, this assay provides an in vitro model for oral activity in humans.
Hepatocytes collected from healthy young (25–45 year) male organ donors were cryo preserved in liquid nitrogen and kept there until use. They were thawed at 37° C. in a waterbath, placed immediately on ice, washed twice in one volume of cold (4° C.) incubation medium [William's medium E (without phenol red) with Glutamax I®, gentamicin 50 μg/ml, insulin 1 μM, fetal calf serum 0% (v/v)], counted and the viability checked by Trypan blue exclusion. Cells were incubated as suspensions in 96-wells (non-coated) plates at a nominal density of 3×10^4 cells/well in 300 μl medium at 37° C. with an air/CO2 mixture (95/5).
The hepatocytes were incubated with 100 nM final concentration of the compound to be tested. The incubations were stopped after 0.5, 1 and 2 h by centrifugation at 200 g. The supernatant was collected for liquid chromatography coupled to immediate mass spectroscopic analysis (LC-MS/MS analysis) and for bioassay. For the latter 10 μl was used for determination of the androgenic activity. The androgenicity was determined as described at example 6. The final compound concentration for determination of androgenic activity was 1 nmol/l.
The metabolic stability (t1/2) of the compounds of the invention were classified according to the following scheme: • (+++) metabolic stability>17α-methyltestosterone (MT) • (++) 17α-methyltestosterone>metabolic stability>80% of 17α-methyltestosterone • (+) 80% of 17α-methyltestosterone>metabolic stability>testosterone • (−) metabolic stability<testosterone Results are collected in Table 1.

[2] = target: T1, human androgen receptor (hAR) (Homo sapiens, UniProt P10275); test: Transactivative androgen activity in CHO cells transfected with hAR and MMTV-luciferase reporter, compared with 5α-dihydrotestosterone; format: cell-based; design: concentration or dose not given beside the values; details: incubation 16 h, 37° C., compared with the activity of 5α-dihydrotestosterone
T1 construct: expressed in transfected cells; host or cells: Chinese hamster ovary cells (CHO)
T1 sequence (P10275 1-920): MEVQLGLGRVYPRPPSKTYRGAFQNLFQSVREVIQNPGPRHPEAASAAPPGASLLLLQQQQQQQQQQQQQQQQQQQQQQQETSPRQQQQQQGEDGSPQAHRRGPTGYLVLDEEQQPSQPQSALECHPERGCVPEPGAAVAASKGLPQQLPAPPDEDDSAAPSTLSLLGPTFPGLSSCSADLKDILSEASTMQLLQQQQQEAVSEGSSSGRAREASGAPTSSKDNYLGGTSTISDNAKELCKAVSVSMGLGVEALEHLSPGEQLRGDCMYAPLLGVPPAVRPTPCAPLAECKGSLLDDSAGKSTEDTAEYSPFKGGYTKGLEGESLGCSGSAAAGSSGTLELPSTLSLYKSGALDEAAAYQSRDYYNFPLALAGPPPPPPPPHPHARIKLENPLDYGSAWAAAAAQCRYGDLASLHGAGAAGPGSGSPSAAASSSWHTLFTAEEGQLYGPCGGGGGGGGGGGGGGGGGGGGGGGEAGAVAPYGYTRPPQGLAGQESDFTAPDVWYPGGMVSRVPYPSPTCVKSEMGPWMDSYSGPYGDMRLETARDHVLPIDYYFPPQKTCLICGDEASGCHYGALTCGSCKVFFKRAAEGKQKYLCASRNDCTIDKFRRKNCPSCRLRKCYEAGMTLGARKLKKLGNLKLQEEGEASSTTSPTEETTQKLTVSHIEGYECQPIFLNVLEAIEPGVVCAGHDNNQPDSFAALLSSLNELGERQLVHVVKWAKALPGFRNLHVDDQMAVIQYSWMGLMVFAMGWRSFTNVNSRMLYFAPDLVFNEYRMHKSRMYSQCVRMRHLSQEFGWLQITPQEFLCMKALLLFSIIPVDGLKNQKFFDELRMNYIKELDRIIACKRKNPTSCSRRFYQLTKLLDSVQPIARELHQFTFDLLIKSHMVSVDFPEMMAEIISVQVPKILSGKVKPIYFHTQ
Description: The transactivative androgen activity of the compounds of the invention was measured in Chinese hamster ovary cells (CHO) transfected with the human androgen receptor (hAR), in combination with a mouse mammary tumor virus (MMTV), and luciferase […] gene (incubation time 16 h, temperature 37° C.) and compared with the activity of 5α-dihydrotestosterone [Schoonen, W. G. E. J.; de Ries, R. J. H.; Joosten, J. W. H.; Mathijssen-Mommers, G. J. W.; Kloosterboer, H. J., Analyt. Biochem. 261, 222–224 (1998)].

[3] = reported in Heusser et al Helv Chim Acta Vol 22, 1949; cited from earlier work

| SMILES | t1/2 LC-MS/MS ([1]; supernatant analysed by LC-MS/MS) | t1/2 Bioassay [1] | Androgen activity (%) [2] [%] | androgenic activity [3] |
| --- | --- | --- | --- | --- |
| C[C@@H]1CC2=CC(=O)CC[C@@H]2[C@H]2CC[C@]3(C)[C@H](O)[C@@H](C)C[C@@H]3[C@@H]21 [Example 1, (7α,14β,16β,17α)-17-Hydroxy-7,16-dimethylestr-4-en-3-one] | (+ +) | (+ +) | 99.0 |  |
| C[C@]12CC[C@H]3[C@@H](CCC4=CC(=O)CC[C@@]43C)[C@H]1CC[C@H]2O [17α-hydroxy-14β-testosterone] |  |  |  | no androgenic activity |
| C[C@@H]1CC2=CC(=O)CC[C@@H]2[C@H]2CC[C@]3(C)[C@H](O)CC[C@@H]3[C@@H]21 [Ref. comp. 2, (7α,14β,17α)-17-Hydroxy-7-methylestr-4-en-3-one, reference compound] |  |  | 60.5 |  |
| C[C@@H]1CC2=CC(=O)CC[C@@H]2[C@H]2CC[C@]3(C)[C@H](O)[C@H](C)C[C@@H]3[C@@H]21 [Example 2, (7α,14β,16α,17α)-17-Hydroxy-7,16-dimethylestr-4-en-3-one] |  | (+ +) | 38.7 |  |
| C[C@@H]1CC2=CC(=O)CC[C@@H]2[C@H]2CC[C@@]3(C)[C@H](CC(C)(C)[C@H]3O)[C@@H]21 [Example 3, (7α,14β,17α)-17-hydroxy-7,16,16-trimethylestr-4-en-3-one] |  |  | 78.5 |  |
| CC[C@H]1C[C@@H]2[C@H]3[C@H](CC[C@]2(C)[C@@H]1O)[C@H]1CCC(=O)C=C1C[C@H]3C [Example 4a, (7α,14β,16β,17α)-16-Ethyl-17-hydroxy-7-methylestr-4-en-3-one] |  |  | 20.0 |  |
| CC[C@@]1(C)C[C@@H]2[C@H]3[C@H](CC[C@]2(C)[C@@H]1O)[C@H]1CCC(=O)C=C1C[C@H]3C [Example 4b, (7α,14β,16β,17α)-16-Ethyl-17-hydroxy-7,16-dimethylestr-4-en-3-one] |  |  | 24.0 |  |

From patent US7169769B2, “17α-hydroxy-14β-steroids with hormonal effect” (Akzo Nobel N.V., priority 2001, dated 2007)
